Assay results from patent US6541619B1 (Daewoong Pharmaceutical Co., Ltd., priority 1997, dated 2003).
pIC50: −log10 of the molar value.

What was measured:
CHO-K1 cells = assay: Cytotoxicity to CHO-K1 cells that do not express hEGF receptors (MTT); format: cell-based; settings: CHO-K1, serum-free media, 2 days
Method: Cells were cultured on 96 well plates at 1×10^4 cells/ml for 1 day, and received serum-free media containing control and samples, and incubated for additional 2 days. Survival rate of the cells was measured with MTT, in an analogous manner as in Example 15(see: Table 4).

A431 tumor = assay: Anticancer effect in vivo, A431 tumor transplanted in nude mouse
Method: To evaluate anticancer activity of the fusion protein in vivo, A431 cultured cells were transferred subcutaneously to the abdominal region of an immunodeficient nude mouse(20-25 g body weight) at 2×10^7 in 0.2 ml. When the proper size of tumor was formed, tumor was removed from the mouse under sterilization condition and cut into pieces of 2-3 mm to be transferred subcutaneously with a troca. When the size of the transplanted tumor of the nude mouse reached […], mice were divided into 5 groups(6 mice in one group) for i.v. injection. 100 μg/kg body weight of the fusion protein and angiogenin were administered by i.v. injection every 3 day for 4 weeks. After final administration, the area of the tumor-surface was measured by vernier calipers.
The tumor cells were excised after 4 weeks and measured for the weight(see: Table 5).

MCF-7 = assay: Cytotoxicity to breast cancer cells in vitro (MTT); format: cell-based, human; settings: MCF-7, serum-free media, 2 days
Method: In order to evaluate activity of the fusion protein in vitro, breast cancer cell line, MCF-7(ATCC-HTB22), was cultured in DMEM supplemented with 10% FBS. Cells were plated on 96-well plates at 1×10^4 cells/ml and cultured for 1 day. Medium was replaced with serum free-media containing control, sample, and 5-fluorouracil(for comparison) and cultured for 2 days, survival rate was measured with MTT(3-([…]-2-yl)-2,5-diphenyltetrazolium bromide), and IC50 was calculated(see: Table 3).

yeast t-RNA = assay: RNase activity on yeast t-RNA (OD 260 nm); format: biochemical; settings: relative to angiogenin; 37° C., 2 hours
Method: 50 μl of sample containing a fusion protein was mixed with 50 μl of yeast t-RNA mixture containing reaction buffer composed of 120 mM HEPES, 120 mM NaCl, 0.004% BSA and incubated at 37° C. for 2 hours. Reaction was interrupted by an equal volume of 6% perchloric acid. Subsequently, the reaction mixture was centrifuged for 10 minutes and used to measure optical density at 260 nm from which the standard curve was made to measure RNase activity. Activities of the samples were compared with that of angiogenin(see: Table 2).

Compound | pIC50 (CHO-K1 cells; Cricetulus griseus, 48 h) | Mean tumor-surface B (after 4 weeks) (A431 tumor; 100 μg/kg i.v. every 3 day for 4 weeks, after 4 weeks) | Mean tumor-surface A (on the day of administration) (A431 tumor; 100 μg/kg i.v. every 3 day for 4 weeks, day of administration) | Mean tumor-surface B/A (A431 tumor; ratio of surface after 4 weeks to day of administration) | Mean tumor weight (A431 tumor; tumor excised after 4 weeks, 100 μg/kg i.v. every 3 day) | pIC50 (CHO-K1 cells) | pIC50 (MCF-7) | RNase Activity(%) (yeast t-RNA)
O=c1[nH]cc(F)c(=O)[nH]1 [5-fluorouracil, reference compound] | 7.31 |  |  |  |  |  |  | 
Angiogenin: human angiogenin, 14.4 kD protein consisting of 123 amino acids, ribonuclease superfamily, SEQ ID No:2 |  | 477.2 ± 6.7 mm^2 | 79.3 ± 2.1 mm^2 | 6.0 | 5.0 ± 0.7 g | < 7.00 | < 7.00 | 100%
hEGF-angiogenin: fusion protein of EGF-angiogenin expressed from pTE4083, SEQ ID No:19 |  |  |  |  |  |  |  | 65-90%
